From patent US9878982B2, “Pyridine derivatives and anti-mycobacterial use thereof” (priority 2014, dated 2018)
In brackets after ≈: the same amount, converted by molar mass.

Key:
[1] = test system: rifampicin-resistant M. tuberculosis strain (rRMP); assay: microbe, parasite or virus in culture; assay type: cell-based, Mycobacterium tuberculosis; conditions: for MIC: Mycobacterium tuberculosis, read-out: MABA MIC vs. rRMP, rifampicin-resistant M. tuberculosis strain; for MIC / MABA MIC vs. rRMP: two values per compound; for MABA MIC vs. rRMP: rifampicin-resistant M. tuberculosis strain
[2] = test system: isoniazide-resistant Mycobacterium tuberculosis strains (rINH); assay: microbe, parasite or virus in culture; assay type: cell-based; conditions: for MIC: Mycobacterium tuberculosis, read-out: MABA MIC vs. rINH, isoniazide-resistant strain; for MIC / MABA MIC vs. rINH: two values per compound; for MABA MIC vs. rINH: isoniazide-resistant strain

SMILES	MIC [1] [µM]	MABA MIC vs. rRMP [1] [µM]	MIC [2] [µM]	MABA MIC vs. rINH [2] [µM]	inhibitory activity against rifampin-resistant strain (in words) [1]	inhibitory activity against isoniazid-resistant strain (in words) [2]
COc1ncc(-c2ccccc2)cc1C(c1ccccc1)C(O)(CCN(C)C)c1cccc2ccccc12 (stereo not drawn) [Compound 9, 4-(dimethylamino)-1-(2-methoxy-5-phenylpyridin-3-yl)-2-(naphthalen-1-yl)-1-phenylbutan-2-ol]	0.9 (≈ 0.452 µg/mL)	0.91	0.47 (≈ 0.236 µg/mL)	0.44	–	–
NNC(=O)c1ccncc1 [isoniazide, isoniazid, reference compound]	0.83 (≈ 0.114 µg/mL)	0.65	> 8	–	–	–
COc1ncc(-c2ccc(Br)cc2)cc1C(c1ccccc1)C(O)(CCN(C)C)c1cccc2ccccc12 (stereo not drawn) [Compound 133, 1-(5-(4-bromophenyl)-2-methoxypyridin-3-yl)-4-(dimethylamino)-2-(naphthalen-1-yl)-1-phenylbutan-2-ol]	0.24 (≈ 0.14 µg/mL)	0.34	0.22 (≈ 0.128 µg/mL)	0.12	comparable to that of the marketed anti-TB drug, Bedaquiline	comparable to that of the marketed anti-TB drug, Bedaquiline
COc1nc2ccc(Br)cc2cc1[C@@H](c1ccccc1)[C@@](O)(CCN(C)C)c1cccc2ccccc12 [Bedaquiline, reference compound]	0.12 (≈ 0.0667 µg/mL)	0.13	0.07 (≈ 0.0389 µg/mL)	0.09	–	–
CO[C@H]1/C=C/O[C@@]2(C)Oc3c(C)c(O)c4c(O)c(c(/C=N/N5CCN(C)CC5)c(O)c4c3C2=O)NC(=O)/C(C)=C\C=C\[C@H](C)[C@H](O)[C@@H](C)[C@@H](O)[C@@H](C)[C@H](OC(C)=O)[C@@H]1C [rifampin, reference compound]	> 4	–	< 0.016	–	–	–
COc1ncc(-c2ccc(Cl)cc2)cc1C(c1ccccc1)C(O)(CCN(C)C)c1cccc2ccccc12 (stereo not drawn) [Compound 115, 1-(5-(4-chlorophenyl)-2-methoxypyridin-3-yl)-4-(dimethylamino)-2-(naphthalen-1-yl)-1-phenylbutan-2-ol]	0.18 (≈ 0.0967 µg/mL)	–	0.11 (≈ 0.0591 µg/mL)	0.12	comparable to that of the marketed anti-TB drug, Bedaquiline	comparable to that of the marketed anti-TB drug, Bedaquiline
